ChEMBL document CHEMBL1129336, “Ryanodine action at calcium release channels. 2. relation to substituents of the cyclohexane ring” (J Med Chem, 1996)

Target: Ryanodine receptor 2 (Mus musculus) (UniProt E9Q401)
Assay: Displacement of [3H]ryanodine from ryanodine receptor(ryr) of Mouse brain

Sequence of Ryanodine receptor 2 (Mus musculus) (E9Q401 whole entry, looked up): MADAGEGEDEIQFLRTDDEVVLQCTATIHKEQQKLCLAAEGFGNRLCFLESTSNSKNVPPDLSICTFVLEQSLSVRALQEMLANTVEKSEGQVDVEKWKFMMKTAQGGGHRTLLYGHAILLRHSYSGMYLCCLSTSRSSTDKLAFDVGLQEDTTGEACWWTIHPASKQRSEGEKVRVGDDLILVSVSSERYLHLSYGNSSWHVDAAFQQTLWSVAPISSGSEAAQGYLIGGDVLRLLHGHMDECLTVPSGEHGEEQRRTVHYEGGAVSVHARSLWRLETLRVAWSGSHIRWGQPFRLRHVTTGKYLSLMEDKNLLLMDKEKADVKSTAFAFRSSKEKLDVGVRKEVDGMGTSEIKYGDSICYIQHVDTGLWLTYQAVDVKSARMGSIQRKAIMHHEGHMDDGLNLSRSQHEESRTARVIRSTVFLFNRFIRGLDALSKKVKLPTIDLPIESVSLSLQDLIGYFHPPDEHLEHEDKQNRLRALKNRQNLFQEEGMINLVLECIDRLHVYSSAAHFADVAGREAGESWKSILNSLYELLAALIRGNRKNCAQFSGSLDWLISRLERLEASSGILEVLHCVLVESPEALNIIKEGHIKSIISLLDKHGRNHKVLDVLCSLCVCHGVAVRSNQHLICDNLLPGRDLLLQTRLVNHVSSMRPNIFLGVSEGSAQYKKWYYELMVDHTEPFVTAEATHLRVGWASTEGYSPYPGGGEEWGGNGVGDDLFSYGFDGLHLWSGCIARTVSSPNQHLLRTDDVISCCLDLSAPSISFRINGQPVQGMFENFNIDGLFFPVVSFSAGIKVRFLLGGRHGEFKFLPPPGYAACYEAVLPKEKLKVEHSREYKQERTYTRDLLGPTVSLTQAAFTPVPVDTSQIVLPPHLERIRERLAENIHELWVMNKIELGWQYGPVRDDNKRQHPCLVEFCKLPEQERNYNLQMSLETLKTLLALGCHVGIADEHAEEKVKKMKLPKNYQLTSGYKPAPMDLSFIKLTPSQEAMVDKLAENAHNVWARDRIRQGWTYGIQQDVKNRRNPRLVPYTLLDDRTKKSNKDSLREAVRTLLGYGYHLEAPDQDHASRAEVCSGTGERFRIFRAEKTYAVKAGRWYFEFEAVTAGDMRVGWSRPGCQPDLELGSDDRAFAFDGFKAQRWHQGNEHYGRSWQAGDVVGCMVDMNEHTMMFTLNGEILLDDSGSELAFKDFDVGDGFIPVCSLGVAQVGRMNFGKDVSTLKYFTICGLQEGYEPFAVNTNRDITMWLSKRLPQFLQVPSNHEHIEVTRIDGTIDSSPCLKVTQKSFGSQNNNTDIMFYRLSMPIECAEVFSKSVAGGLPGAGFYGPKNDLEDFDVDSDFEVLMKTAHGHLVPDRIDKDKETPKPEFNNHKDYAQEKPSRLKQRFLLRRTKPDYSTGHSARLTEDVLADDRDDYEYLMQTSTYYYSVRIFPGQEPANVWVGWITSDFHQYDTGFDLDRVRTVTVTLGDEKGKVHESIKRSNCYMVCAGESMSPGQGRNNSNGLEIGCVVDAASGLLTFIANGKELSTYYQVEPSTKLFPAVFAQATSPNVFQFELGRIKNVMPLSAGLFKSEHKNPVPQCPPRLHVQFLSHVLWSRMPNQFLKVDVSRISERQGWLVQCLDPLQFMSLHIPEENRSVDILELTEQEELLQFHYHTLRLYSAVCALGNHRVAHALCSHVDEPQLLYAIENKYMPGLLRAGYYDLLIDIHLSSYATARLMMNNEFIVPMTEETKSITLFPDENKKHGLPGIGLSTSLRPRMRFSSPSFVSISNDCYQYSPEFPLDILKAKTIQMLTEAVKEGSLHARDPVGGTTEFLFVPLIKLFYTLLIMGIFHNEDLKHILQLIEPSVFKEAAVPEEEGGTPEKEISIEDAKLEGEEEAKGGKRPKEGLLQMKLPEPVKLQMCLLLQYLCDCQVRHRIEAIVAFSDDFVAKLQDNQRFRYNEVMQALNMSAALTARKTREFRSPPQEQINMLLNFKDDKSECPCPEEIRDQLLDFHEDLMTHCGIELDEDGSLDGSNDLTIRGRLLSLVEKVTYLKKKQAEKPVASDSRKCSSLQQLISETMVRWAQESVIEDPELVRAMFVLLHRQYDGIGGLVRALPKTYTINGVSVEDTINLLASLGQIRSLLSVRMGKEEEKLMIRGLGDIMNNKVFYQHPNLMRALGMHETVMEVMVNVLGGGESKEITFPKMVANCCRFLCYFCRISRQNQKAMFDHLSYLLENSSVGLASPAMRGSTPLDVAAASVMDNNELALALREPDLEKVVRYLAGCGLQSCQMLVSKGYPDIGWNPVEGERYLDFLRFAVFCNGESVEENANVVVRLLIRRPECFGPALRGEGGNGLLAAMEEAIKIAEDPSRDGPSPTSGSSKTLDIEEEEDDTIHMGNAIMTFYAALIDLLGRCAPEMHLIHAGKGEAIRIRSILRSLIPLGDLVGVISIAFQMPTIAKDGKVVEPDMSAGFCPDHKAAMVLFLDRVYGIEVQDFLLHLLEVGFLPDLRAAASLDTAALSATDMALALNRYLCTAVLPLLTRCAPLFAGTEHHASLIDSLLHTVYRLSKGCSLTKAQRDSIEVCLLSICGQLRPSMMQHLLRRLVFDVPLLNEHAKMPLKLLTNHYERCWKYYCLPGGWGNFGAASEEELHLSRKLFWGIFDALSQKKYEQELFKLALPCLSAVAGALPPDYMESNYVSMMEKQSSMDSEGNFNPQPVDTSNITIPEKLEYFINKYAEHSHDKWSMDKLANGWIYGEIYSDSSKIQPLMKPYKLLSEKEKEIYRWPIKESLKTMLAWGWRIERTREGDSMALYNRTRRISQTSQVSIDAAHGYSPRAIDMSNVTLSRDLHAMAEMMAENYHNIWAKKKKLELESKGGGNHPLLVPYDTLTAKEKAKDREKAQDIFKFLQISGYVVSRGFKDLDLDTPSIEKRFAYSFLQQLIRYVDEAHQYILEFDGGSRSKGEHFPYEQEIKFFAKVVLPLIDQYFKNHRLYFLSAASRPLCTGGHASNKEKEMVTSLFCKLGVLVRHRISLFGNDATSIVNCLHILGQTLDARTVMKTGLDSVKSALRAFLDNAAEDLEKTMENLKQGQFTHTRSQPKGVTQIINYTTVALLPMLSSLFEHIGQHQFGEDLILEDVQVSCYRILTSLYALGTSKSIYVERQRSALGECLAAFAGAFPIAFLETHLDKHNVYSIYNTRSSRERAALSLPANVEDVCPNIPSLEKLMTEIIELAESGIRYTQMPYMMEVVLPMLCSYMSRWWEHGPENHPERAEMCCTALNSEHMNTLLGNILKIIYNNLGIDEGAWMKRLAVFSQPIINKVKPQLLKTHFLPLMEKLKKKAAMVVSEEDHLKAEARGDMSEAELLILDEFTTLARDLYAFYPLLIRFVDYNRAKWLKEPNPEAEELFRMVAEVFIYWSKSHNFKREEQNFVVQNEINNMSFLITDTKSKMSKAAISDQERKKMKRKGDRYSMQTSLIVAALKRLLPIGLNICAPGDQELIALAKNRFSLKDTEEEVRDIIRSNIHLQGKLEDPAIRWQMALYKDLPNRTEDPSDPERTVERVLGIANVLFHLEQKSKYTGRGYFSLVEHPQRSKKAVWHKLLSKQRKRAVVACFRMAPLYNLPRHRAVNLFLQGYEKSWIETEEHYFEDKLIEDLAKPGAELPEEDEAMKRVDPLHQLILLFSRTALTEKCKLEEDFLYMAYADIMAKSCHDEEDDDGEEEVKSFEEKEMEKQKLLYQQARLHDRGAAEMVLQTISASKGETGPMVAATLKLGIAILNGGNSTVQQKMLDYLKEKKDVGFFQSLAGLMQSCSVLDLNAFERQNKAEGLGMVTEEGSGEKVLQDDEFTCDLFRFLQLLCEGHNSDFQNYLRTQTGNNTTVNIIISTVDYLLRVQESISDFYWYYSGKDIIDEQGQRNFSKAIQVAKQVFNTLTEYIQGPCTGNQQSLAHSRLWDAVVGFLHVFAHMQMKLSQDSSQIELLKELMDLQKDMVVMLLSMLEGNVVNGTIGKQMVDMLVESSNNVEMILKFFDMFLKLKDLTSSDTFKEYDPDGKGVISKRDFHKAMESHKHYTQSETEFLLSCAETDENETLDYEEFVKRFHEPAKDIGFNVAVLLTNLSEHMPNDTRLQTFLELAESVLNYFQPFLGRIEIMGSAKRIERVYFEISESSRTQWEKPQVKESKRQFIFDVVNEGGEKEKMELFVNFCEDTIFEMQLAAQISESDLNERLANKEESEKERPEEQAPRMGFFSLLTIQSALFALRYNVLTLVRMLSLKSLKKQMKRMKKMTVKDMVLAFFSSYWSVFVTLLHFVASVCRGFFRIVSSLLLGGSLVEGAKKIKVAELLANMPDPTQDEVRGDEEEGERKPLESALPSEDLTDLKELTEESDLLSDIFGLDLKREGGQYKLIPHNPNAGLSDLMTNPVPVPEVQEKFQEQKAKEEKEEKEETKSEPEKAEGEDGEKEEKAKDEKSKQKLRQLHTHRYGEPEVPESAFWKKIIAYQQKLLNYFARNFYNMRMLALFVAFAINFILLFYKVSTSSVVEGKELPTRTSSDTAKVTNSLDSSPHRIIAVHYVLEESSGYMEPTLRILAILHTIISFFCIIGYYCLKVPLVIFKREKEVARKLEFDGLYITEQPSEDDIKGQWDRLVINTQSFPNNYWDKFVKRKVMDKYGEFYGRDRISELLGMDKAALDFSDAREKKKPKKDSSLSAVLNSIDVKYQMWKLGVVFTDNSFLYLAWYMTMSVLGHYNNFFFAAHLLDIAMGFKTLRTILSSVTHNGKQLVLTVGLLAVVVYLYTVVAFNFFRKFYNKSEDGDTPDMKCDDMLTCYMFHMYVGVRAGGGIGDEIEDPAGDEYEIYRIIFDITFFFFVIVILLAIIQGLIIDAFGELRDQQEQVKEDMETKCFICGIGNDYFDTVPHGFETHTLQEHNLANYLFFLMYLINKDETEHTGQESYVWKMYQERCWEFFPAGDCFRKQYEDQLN

SMILES | Relative activity
CC(C)C1(O)C(OC(=O)c2ccc[nH]2)C2(O)C3(C)CC4(O)OC5(CC(O)CCC35O)C2(O)C41C (stereo not given) | 0.4
C=C1CCC2(O)C3(C)CC4(O)OC2(C1OC(=O)c1ccccc1)C1(O)C3(O)C(OC(=O)c2ccc[nH]2)C(O)(C(C)C)C41C (stereo not given) | 17
CC1CCC2(O)C3(C)CC4(O)OC2(C1N)C1(O)C3(O)C(OC(=O)c2ccc[nH]2)C(O)(C(C)C)C41C (stereo not given) | 65
CC(C)C1(O)C(OC(=O)c2ccc[nH]2)C2(O)C3(C)CC4(O)OC5(CCCCC35O)C2(O)C41C (stereo not given) | 18
CO/N=C1\C(C)CCC2(O)C3(C)CC4(O)OC12C1(O)C3(O)C(OC(=O)c2ccc[nH]2)C(O)(C(C)C)C41C (stereo not given) | 13
